Experimental data as given in patent US12071469B2, “Peptide compounds for suppressing inflammation” (Duke University, priority 2011, dated 2024).

Key:
[1] = test system: primary rat neuronal cortical culture exposed to NMDA; experiment: Neuroprotection from NMDA mediated cell death in primary neuronal culture (LDH release); format: cell-based
Method: Peptides of 5 amino acids in length were applied to one or more samples of cells in parallel at concentrations ranging from about 0 to about 50 μM, such as 0.3, 3, and 30 μM. The peptides AL-10-1 (SEQ ID NO:18) and VL-17-9 (SEQ ID NO:19), which are longer peptides (12 amino acids each) were used as negative and positive controls, respectively. A series of peptides were screened in primary rat neuronal cortical culture exposed to NMDA using the method described in Aono et al., Neuroscience (2003) 116:437 and Aono et al., Neurobiology of Disease (2002) 11:214, both of which are incorporated by reference in their entirety (see Table 2). Neuroprotection from NMDA mediated cell death in primary neuronal culture was expressed as percentage decrease in LDH, 24 hours after exposure to NMDA compared to vehicle treated cultures (Table 2). LDH release is indicative of neuronal death after NMDA exposure. The peptide VR-55 (SEQ ID NO:4) reduced NMDA mediated excitotoxic cell death by approximately 19% at a concentration of 1 μM. […] The positive control peptide VL-17-9 reduced LDH release by 31%.
Dose response of the neuroprotection from NMDA excitotoxicity in primary neuronal culture was determined for ApoE mimetic peptide VR-55 (SEQ ID NO: 4). […] “0” indicates less than 5% suppression; “+” indicates 5-10% suppression; “++” indicates 11-20% suppression; and “+++” indicates greater than 20% suppression. In addition to VL-17-9, several other candidates had greater than 20% suppression, including VR-55, VL-5-1, VL-5-2 and VR-52.

[2] = test system: mice with traumatic brain injury; experiment: Morris water maze neurocognitive performance after traumatic brain injury; format: in vivo, mouse; conditions: 0.05 mg/kg or 0.2 mg/kg iv at 2 h and 6 h after traumatic brain injury; days 28-31 post-injury; FIG. 4
Method: An experimental murine model for traumatic brain injury was developed. Laskowitz, et al. (2010) J. Neurotrauma, 27:1983-95. Male mice (age 12-14 weeks) were anesthetized with 4.3% isoflurane in oxygen in an anesthesia induction box for 90 seconds. The trachea was intubated and the lungs mechanically ventilated with 1.4% isoflurane in a 50/50 mixture of oxygen and nitrogen. Body temperature was maintained at 37° C. using surface heating/cooling. The top of the skull was exposed by a midline incision to identify anatomical landmarks, and a concave 3-mm metallic disc was secured to the skull surface with an adhesive, directly midline and just caudal to the bregma. […]
Another experimental procedure for measuring neurological deficits was developed using a Morris water maze. […] Latency to finding the platform and swimming speed were recorded using a computerized video tracking system (Ethovision 2.2.14; available from Noldus Information Technology, Leesburg VA).
Groups of mice received either an ApoE mimetic peptide (SEQ ID NO:4; 0.05 mg/kg) or carrier (saline) by intravenous tail vein injection at 2 hours and again at 6 hours after traumatic brain injury induced as described in Example 3. Each mouse was tested for vestibulomotor function by rotorod latency measured before and after injury, as described in Example 3. […]

[3] = test system: mice with blast injury; experiment: Morris water maze after blast injury (shock tube blast model); format: in vivo, mouse
Method: Another experimental procedure for measuring neurological deficits was developed using a Morris water maze. The procedure used a black aluminum pool containing a movable platform (7.5 cm diameter) and filled with 25-27° C. water opacified with powdered milk. Each training or testing session consisted of four trials per day with an interval of 20-30 minutes between trials. One day before testing, mice were trained using a visible platform (platform flagged and located in a different quadrant each trial to minimize quadrant habituation, no extra-maze visual cues) to habituate the mice to handling and swimming and to teach the mice the goal of the test-escaping the water by climbing on the platform. […] Latency to finding the platform and swimming speed were recorded using a computerized video tracking system (Ethovision 2.2.14; available from Noldus Information Technology, Leesburg VA). […]
The shock tube was mounted vertically on an extruded aluminum frame using three vibration-damping U-bolts. […] Peak incident overpressure, positive-phase duration, and peak incident impulse were recorded in the three end-tube PTs for each test (data not shown). […] Atmospheric conditions (temperature, barometric pressure, humidity) were recorded prior to each test. […]

With Ac-VSRRR-NH2 [VR-55, Ac-VSRRR-NH2] the “dose response of percent suppression of LDH release after NMDA exposure” value ([1]; FIG. 6) was “dose dependent”, the “percentage decrease in LDH, 24 hours after exposure to NMDA compared to vehicle treated cultures” value (shortened to “percentage decrease in LDH, 24 hours”) ([1]; peptide 0.1 μM) was −2.85% and the “percentage decrease in LDH, 24 hours” value ([1]; peptide 0.3 μM) was 1.50%. For the same substance, the “suppression of LDH release, cumulative data (class)” value ([1]; peptide 1 μM, cumulative data) was “+++ (greater than 20% suppression)”, the “percentage decrease in LDH, 24 hours” value ([1]; peptide 3 μM) was 15.91% and the “neurocognitive outcomes (Morris water maze latency)” value [2] was “improved neurocognitive outcomes”. For the same substance, the “neurocognitive deficit after blast injury (Morris water maze)” value ([3]; FIG. 8, groups of 15) was “reduces neurocognitive deficit after blast injury” and the “time in the correct quadrant (probe trial)” value ([3]; blast injury, vehicle 17.8±1.9 seconds, p=0.24) was 21.8 ± 2.7 s.
